Source: patent publication US20230263168A1, “COMBINED FUNGICIDAL PREPARATIONS AND METHODS FOR USING THEREOF” (SAVE FOODS LTD., priority 2020, published 2023)

Tested on: Penecillium Digitatum
Assay: Example 3, Trials 1-3: decay of inoculated clementine stored at room temp
Format: in vivo, Penecillium Digitatum on Clementine
Method: Fruits: Clementine; Inoculum: Penecillium Digitatum 10^5; Inoculation: 24 hours prior to treatment.
Storage: Cartons of fruit from all the treatments were stored for several days at room temp to monitor fruit spoilage and treatment efficacy.

Structure (SMILES) | % decay (waste) 12 days at room temp (Trial 1, IMZ 250 ppm, PAA 0, ACIDS 0) | % decay (waste) 9 days at room temp (Trial 2, IMZ 250 ppm, PAA 0, ACIDS 0) | % decay (waste) 9 days at room temp (Trial 2, IMZ 500 ppm, PAA 0, ACIDS 0) | % decay (waste) 9 days at room temp (Trial 3, IMZ 250 ppm, PAA 0, ACIDS 0) | % decay (waste) 9 days at room temp (Trial 3, IMZ 500 ppm, PAA 0, ACIDS 0) | % decay (waste) 9 days at room temp (Trial 3, PAA 150 ppm only)
C=CCOC(Cn1ccnc1)c1ccc(Cl)cc1Cl (stereo not drawn) [IMZ, imazalil] | 55% | 40% | 19% | 35% | 24% | –
CC(=O)OO [PAA, peracetic acid] | – | – | – | – | – | 36%
